This is an account of results in patent publication US4124726A, “Anti-inflammatory agent of benzoyl derivative” (priority 1976, dated 1978).

One data set relates to carragheenin edema. Nature of the data set: acute carragheenin edema inhibition (anti-inflammatory effect). The format is in vivo, male rats. To be noted: for inhibition in vivo at 100 mg/kg / ED50: Rattus norvegicus; for inhibition in vivo at 100 mg/kg / Anti-inf. (edema inhibition rate): 100 mg/kg oral; for inhibition in vivo at 100 mg/kg: read-out: Anti-inf. (edema inhibition rate); for ED50: read-out: 50% inhibition rate ED50. How it is done:
The edema was induced by subcutaneous injection of 1% carraheenin suspension in saline to the hind paws of male rats weighing 150 to 180 g. Each sample was orally given at the dosage of 100 mg/kg just before the inoculation of carragheenin.

The next data set concerns platelet aggregation. Put plainly: blood platelet aggregation inhibition, collagen as inducer. To be noted: 10^-4 mole, rabbit PRP; for inhibition at 100 µM: Oryctolagus cuniculus, Platelet, read-out: Blood platelet agg. inh. (percentage inhibition of platelet aggregation). The format is cell-based. The text has this: Blood platelet aggregation inhibiting effect
Male rabbits (Japan original white strain 3.3 to 3.6 kg) were anesthetized with Thiopental sodium and blood was sampled from the carotid artery.

A short description of the next data set: in vivo. To be noted: mouse, po. How it is done:
Each sample was dissolved in olive oil or dispersed in 1% Tween 20 aqueous solution.

Another data set concerns thrombosis. Nature of the data set: inhibiting effect on thrombosis (arterio-venous by-pass, silk thread). Type of data set: in vivo, SD type male rats. Particulars: for inhibition in vivo at 100 mg/kg: Rattus norvegicus, read-out: Thrombosis inh. Here is the method:
Inhibiting effect on thrombosis:
The inhibiting effects of the samples of the invention on thrombosis were tested by the following test method.
A 0.5 ml of 50 μ/ml of the heparin physiological saline was added through the polyethylene tube before the first blood circulation. After the blood circulation for 15 minutes, the circulation was stopped in the middle of the tubing at artery side with a pinch cock.
Then, 0.2 ml of the heparin physiological saline was added to remove the blood coagulates on the tubing wall and another new polyethylene tubing filled with the heparin solution and containing a piece of new silk thread was attached between the venous and artery tubing ends.
The blood circulation was reestablished by opening the pinch cock. After 15 minutes, the wet weight of thrombus on the silk thread was similarly measured. In the same manner, the third circulation was performed and wet weight of thrombus measured.
The amount of thrombus was given by the equation A. [formula] Each sample was suspended in an aqueous solution of sodium carboxymethyl cellulose and the oral dose of the suspension (100 mg/kg) was performed at 5 hours before the first blood circulation. The amount of thrombus after the oral dose of the sample was calculated in the same manner as that of control circulations.
The thrombosis inhibition rate was given by the equation B. [formula]

In data set [1] the test system is painful stretchings induced by acetic acid. Put plainly: acetic acid induced stretching (analgesic effect). To be noted: for inhibition in vivo at 100 mg/kg: Mus musculus, po, read-out: Analgesic (percentage diminution of times of painful stretchings); for Analgesic (percentage diminution of times of painful stretchings): 100 mg/kg oral, 0.7% acetic acid i.p., mice.
Method: Each sample was orally administrated in the dosage of 100 mg/kg before injection of acetic acid.

The mark [2] stands for this setting: carragheenin edema, rats, Table 2.
[3] abbreviates: oral, carragheenin edema, rats, Table 2.
Setting [4] is: 100 mg/kg oral, 5 hours before first circulation, rats.

Where two headings read alike, the source gives them in different places. Bounds are passed on as bounds.

Turning to `Cc1cc(C)c(C(=O)c2ccccc2)c(C)c1` [compound 30], the inhibition in vivo at 100 mg/kg in the data set on carragheenin edema (setting [2]) came to 64.7%; with thrombosis (setting [4]), 44.8%; in data set [1], 13.4%. For the same compound, in the data set on carragheenin edema (setting [3]), the ED50 was determined as 45 mg/kg. The inhibition at 100 µM with platelet aggregation came out at 8.7%. The compound further displayed a 50% lethal dose (LD50) at 72 h in the data set “in vivo” of 1500 mg/kg.

As for `O=C(c1ccccc1)c1ccccc1` [compound 27], in the data set with carragheenin edema (setting [2]), the “Anti-inf. (edema inhibition rate)” value came to 47.7%. Also, in the data set with carragheenin edema (po), the ED50 is 120 mg/kg. In addition, the “Blood platelet agg. inh. (percentage inhibition of platelet aggregation)” value with platelet aggregation came out at 25.7%. The same compound registered an LD50 at 72 h in “in vivo” of 3700 mg/kg. Also, in the data set on thrombosis (setting [4]), the Thrombosis inh. amounted to 25.9%. Further, the “Analgesic (percentage diminution of times of painful stretchings)” value in data set [1] was 13.2%.

As for `Cc1ccc(C(=O)C(=O)c2ccccc2)cc1` [compound 54], in the data set on carragheenin edema (setting [2]), the “Anti-inf. (edema inhibition rate)” value came to 25.5%. Also, the “Blood platelet agg. inh. (percentage inhibition of platelet aggregation)” value in the data set on platelet aggregation came to 15.4%. For the same compound, the Thrombosis inh. in the data set on thrombosis (setting [4]) is reported as 20.3%. Besides, in data set [1], the “Analgesic (percentage diminution of times of painful stretchings)” value turned out to be 11.3%.

Regarding `Cc1ccc(C)c(C(=O)c2ccccc2)c1` [compound 38], the ED50 in the data set with carragheenin edema (setting [3]) amounted to 170 mg/kg. Besides, in the data set on platelet aggregation, the “Blood platelet agg. inh. (percentage inhibition of platelet aggregation)” value is recorded as 20.9%. In “in vivo”, this compound registered an LD50 at 72 h of 1000 mg/kg. In addition, in the data set with thrombosis (setting [4]), the inhibition in vivo at 100 mg/kg was determined as 8.3%. The “Analgesic (percentage diminution of times of painful stretchings)” value in data set [1] is on record as 18.0%.

Take `CCCCc1ccc(C(=O)c2ccccc2)cc1` [compound 19]: the ED50 in the data set on carragheenin edema (setting [3]) was 25 mg/kg. The “Blood platelet agg. inh. (percentage inhibition of platelet aggregation)” value in the data set on platelet aggregation was 18.6%. Also, the LD50 at 72 h in the data set “in vivo” was 2400 mg/kg. Further, the inhibition in vivo at 100 mg/kg in the data set on thrombosis (setting [4]) is 7.9%. Besides, the “Analgesic (percentage diminution of times of painful stretchings)” value in data set [1] is given as 30.1%.

For `CCCCCCc1ccc(C(=O)c2ccc(C)cc2C)cc1` [Active ingredient No. 4], the values for the inhibition in vivo at 100 mg/kg (in the data set with carragheenin edema (setting [2]); in the data set on thrombosis (setting [4]); in data set [1]) were 44.2%, 15.9% and 16.3%, respectively. For the same compound, the inhibition at 100 µM with platelet aggregation came to 20.5%. In “in vivo”, this compound displayed an LD50 at 72 h of 4000 mg/kg.

As to `CCCCc1ccc(C(=O)c2ccccc2F)cc1` [compound 8], the ED50 with carragheenin edema (setting [3]) was 38 mg/kg. Besides, in the data set on platelet aggregation, the “Blood platelet agg. inh. (percentage inhibition of platelet aggregation)” value was found to be 24.0%. The inhibition in vivo at 100 mg/kg in the data set on thrombosis (setting [4]) is 38%. Moreover, the “Analgesic (percentage diminution of times of painful stretchings)” value in data set [1] is 14.8%.

For the compound `COc1ccc(C(=O)C(=O)c2ccccc2)cc1`, the “Anti-inf. (edema inhibition rate)” value in the data set on carragheenin edema (setting [2]) is given as 43.9%. Further, in the data set with platelet aggregation, the “Blood platelet agg. inh. (percentage inhibition of platelet aggregation)” value is 20.1%. The compound further had a median lethal dose (LD50) at 72 h in “in vivo” of 10000 mg/kg. The Thrombosis inh. in the data set with thrombosis (setting [4]) is listed as 18.3%. For the same compound, in data set [1], the “Analgesic (percentage diminution of times of painful stretchings)” value is 10.2%.

As for `COc1ccc(C(=O)c2ccccc2)cc1` [compound 28], in the data set with carragheenin edema (setting [2]), the “Anti-inf. (edema inhibition rate)” value turned out to be 44.1%. For the same compound, the “Blood platelet agg. inh. (percentage inhibition of platelet aggregation)” value with platelet aggregation stood at 20.4%. Moreover, the LD50 at 72 h in the data set “in vivo” is more than 10000 mg/kg. For the same compound, in the data set with thrombosis (po), the inhibition in vivo at 100 mg/kg stood at 7.3%. Moreover, in data set [1], the “Analgesic (percentage diminution of times of painful stretchings)” value turned out to be 4.2%.

On to `O=C(Cc1ccccc1)c1ccccc1` [compound 47], for which the “Anti-inf. (edema inhibition rate)” value in the data set on carragheenin edema (setting [2]) is on record as 20.9%. In addition, the “Blood platelet agg. inh. (percentage inhibition of platelet aggregation)” value with platelet aggregation came out at 18.3%. In the data set on thrombosis (setting [4]), this compound displayed a Thrombosis inh. of 15.6%. For the same compound, the “Analgesic (percentage diminution of times of painful stretchings)” value in data set [1] came to 13.1%.

As for `O=C(c1ccccc1)c1ccc(C2CCCCC2)cc1` [compound 73], the figures for the inhibition in vivo at 100 mg/kg (with carragheenin edema (setting [2]); with thrombosis (setting [4]); in data set [1]) were 32.1%, 28.8% and 10%, respectively. Further, in the data set with platelet aggregation, the inhibition at 100 µM stood at 20.3%. In addition, the LD50 at 72 h in the data set “in vivo” came to 6000 mg/kg.

Regarding `CC(C)c1ccc(C(=O)c2ccccc2)cc1` [compound 21], in the data set with platelet aggregation, the “Blood platelet agg. inh. (percentage inhibition of platelet aggregation)” value is 8.6%. For the same compound, in the data set “in vivo”, the LD50 at 72 h was 2000 mg/kg. Further, the inhibition in vivo at 100 mg/kg in the data set on thrombosis (setting [4]) was 5.4%. In data set [1], the “Analgesic (percentage diminution of times of painful stretchings)” value stood at 16.1%.

With `O=C(C(=O)c1ccccc1)c1ccccc1` [compound 53], the “Anti-inf. (edema inhibition rate)” value with carragheenin edema (setting [2]) turned out to be 20.3%. The “Blood platelet agg. inh. (percentage inhibition of platelet aggregation)” value in the data set on platelet aggregation was 10.1%. For the same compound, in the data set with thrombosis (setting [4]), the Thrombosis inh. is recorded as 19.2%. Also, in data set [1], the “Analgesic (percentage diminution of times of painful stretchings)” value was determined as 14.2%.
